Source: US7842294B2, “Proteins belonging to the Bcl-2 family and fragments thereof, and their use in cancer patients” (Survac APS, priority 2003, dated 2010)
Several values for one entry are separate records, joined by “and”; a condition that tells them apart may be missing. Equal values may be shown once. Read-outs that look alike come from different tables or passages of the source. Ends that are not written are not given here.

Legend:
HLA-A2 = molecular target: T1, HLA-A2 (Homo sapiens, UniProt P04439, D140Y/D185E/D98H/E176V/E277Q/G131W/G231S/I119V/I121R/I166T/I218V/L300P/L318F/N151K/N90K/P208A/P217A/Q86G/Q94H/R138H/R169H/T345S); experiment: Assembly assay for peptide binding to MHC class I molecules (stabilisation of HLA from TAP-deficient T2 cells); conditions: recovery of HLA-A2 measured at 50, 5, 0.5, 0.05 μM peptide
T1 construct: empty HLA molecules released upon cell lysis, from the TAP-deficient cell line T2; endogenous in cells; host or cells: T2 (TAP-deficient cell line), metabolically labelled with [35S]-methionine and lysed
Method: This assembly assay is carried out as described previously (2), and it is based on stabilisation of the HLA molecule after loading of peptide to the peptide transporter deficient cell line T2. Subsequently, correctly folded stable HLA heavy chains are immunoprecipitated using conformation dependent antibodies and the peptide binding is quantitated.
The binding affinity of the synthetic peptides (Invitrogen, Carlsbad, Calif., USA) to HLA-A2 molecules, metabolically labelled with [^35S]-methionine, was measured in the assembly assay, as described previously. The assay is based on peptide-mediated stabilisation of empty HLA molecules released upon cell lysis, from the TAP-deficient cell line T2. Stably folded HLA-molecules were immune-precipitated using the HLA class I-specific, conformation-dependent mAb W6/32, and separated by isoelectric focusing (IEF) gel electrophoresis. MHC heavy chain bands were quantified using the ImageGauge Phosphorimager program (FUJI photo film Co., Carrollton, Tex., USA). The intensity of the band is directly related to the amount of peptide-bound class I MHC complex recovered during the assay. Subsequently, the extent of stabilisation of HLA-A2 is directly related to the binding affinity of the added peptide. The recovery of HLA-A2 was measured in the presence of 50, 5, 0.5, 0.05 μM of the relevant peptide. The C50 value was calculated for each peptide as the peptide concentration sufficient for half maximal stabilisation.
The amino acid sequence of the Bcl-2 protein was screened for the most probable HLA-A2 nona- and decamer peptide epitopes, using the main HLA-A2 specific anchor residues (2). […] The assembly assay is based on stabilisation of the class I molecule after loading of different concentrations of peptide to the TAP-deficient cell line T2. Subsequently correctly folded stable MHC heavy chains are immunoprecipitated using conformation-dependent antibodies.

[1] = tested on: peptide epitope-specific interferon-γ releasing effector cells in PBL; experiment: IFN-γ ELISPOT on PBL stimulated once in vitro with peptide; type: cell-based, human; conditions: for patients with spontaneous CTL response / patients with spontaneous CTL response (%): PBL from 15 HLA-A2 positive breast cancer patients; for CTL response in cancer patients of different origin (in words): PBL from HLA-matched cancer patients; for pancreatic cancer patients with response: two HLA-A3+ pancreatic cancer patients; for healthy individuals with CTL response: 12 healthy HLA-A2 positive individuals; for breast cancer patients hosting an immune response: eighteen HLA-A2+ breast cancer patients; for breast cancer patients hosting an immune response / melanoma patients hosting an immune response: responder >25 spots per 10^5 cells; for melanoma patients hosting an immune response: six HLA-A2+ melanoma patients; for pancreatic cancer patients with CTL response: two HLA-A2 positive pancreatic cancer patients
Method: To extend the sensitivity of the ELISPOT assay, PBL were stimulated once in vitro prior to analysis. At day 0, PBL or crushed lymph nodes were thawed and plated in 2 ml/well at a concentration of 2×10^6 cells in 24-well plates (Nunc, Denmark) in X-vivo medium (Bio Whittaker, Walkersville, Md.), 5% heat-inactivated human serum, and 2 mM of L-glutamine in the presence of 10 μM of peptide. Two days later 20 IU/ml recombinant interleukin-2 (IL-2) (Chiron, Ratingen, Germany) was added to the cultures. The cultured cells were tested for reactivity in the ELISPOT on day 12.
The ELISPOT assay was used to quantify peptide epitope-specific interferon-γ releasing effector cells as described previously (4). Briefly, nitrocellulose bottomed 96-well plates (MultiScreen MAIP N45, Millipore, Hedehusene, Denmark) were coated with anti-IFN-γ antibody (1-D1K, Mabtech, Nacka, Sweden). The wells were washed, blocked by X-vivo medium, and cells added in duplicates at different cell concentrations. Peptides were then added to each well and the plates were incubated overnight. The following day, media was discarded and the wells were washed prior to addition of biotinylated secondary antibody (7-B6-1-Biotin, Mabtech). The plates were incubated for 2 hours, washed and Avidin-enzyme conjugate (AP-Avidin, Calbiochem, Life Technologies) was added to each well. Plates were incubated at RT for 1 hour and the enzyme substrate NBT/BCIP (Gibco, Life Technologies) was added to each well and incubated at RT for 5-10 min. The reaction was terminated by washing with tap-water upon the emergency of dark purple spots. The spots were counted using the ImmunoSpot® Series 2.0 Analyzer (CTL Analyzers, LLC, Cleveland, US) and the peptide specific CTL frequency could be calculated from the numbers of spot-forming cells. All assays were performed in triplicates for each peptide antigen.

[2] = tested on: antigen-specific CTL in PBL; experiment: Granzyme B (GrB) ELISPOT; type: cell-based, human
Method: The Granzyme B (GrB) ELISPOT assay was used for measuring antigen-specific CTL cytotoxicity as described. Briefly, nitrocellulose bottomed 96-well plates (MultiScreen MAIP N45, Millipore) were coated with GrB Capture Antibody (BD Biosciences, Brondby, Denmark). The wells were washed and blocked by X-vivo medium with 5% human serum. The cells were added at different cell concentrations. T2 cells and peptides were then added to each well and the plates were incubated 4 hours, medium was discarded and the wells were washed prior to addition of GrB Detection Antibody (BD Biosciences). The plates were incubated for 2 hours, washed and Avidin horseradish peroxidase (BD Biosciences) was added to each well. Plates were incubated at RT for 1 hour AEC Substrate Reagent (BD Biosciences) was added to each well and incubated at RT for 5-10 min. The reaction was terminated by washing with tap-water upon the emergency of red spots. The spots were counted and the peptide specific CTL frequency was calculated like for the INF-γ ELISPOT. All assays were performed in duplicate or triplicates for each peptide antigen.

CD8+ T cells from PBL = experiment: FACS analysis with Pro5 MHC pentamer staining; type: cell-based, human; conditions: breast cancer patient no. 36, PBL stimulated once in vitro, HLA-A2/Bcl-XL173-182 pentamer
[3] = C50 (concentration of the peptide required for half maximal binding to HLA-A2)
[4] = read-out: C50 (concentration of the peptide required for half maximal binding to HLA-A2)
[5] = four HLA-A1+ breast cancer patients
[6] = seven HLA-A1+ melanoma patients
[7] = six healthy HLA-A1+ individuals
[8] = six HLA-A3+ breast cancer patients, 3×10^5 cells per well, Mcl-1 study

AAAGPALSPV [bcl80]
EC50 (HLA-A2; [3]): 36000 nM

ALSPVPPVV [Bcl85]
EC50 (HLA-A2; [4]): 1000 nM

ALVGACITL [Bcl224]
EC50 (HLA-A2; [4]): 700 nM

ELYGPSMRPL [bcl200]
C50 (concentration of the peptide required for half maximal binding to HLA-A2) (HLA-A2): did not bind

FTARGRFATV [bcl124]
EC50 (HLA-A2; [4]): 1000 nM

KTLLSLALV [bcl218]
EC50 (HLA-A2; [3]): 2000 nM

LLSLALVGA [bcl220]
EC50 (HLA-A2; [4]): 1000 nM

NIALWMTEYL [bcl172]
EC50 (HLA-A2; [4]): 2000 nM | patients with spontaneous CTL response [1]: eight | patients with spontaneous CTL response (%) [1]: 50%

PAEEEEDDLY (Peptide derived from Mcl-1) [Mcl-1166-175]
CTL response in cancer patients of different origin (in words) [1]: CTL responses were detected | breast cancer patients with response [1, 5]: one of these | melanoma patients with response [1, 6]: another of these | healthy donors with response [1, 7]: no responses were detected

QSLEIISRY (Peptide derived from Mcl-1) [Mcl-1177-185]
CTL response in cancer patients of different origin (in words) [1]: CTL responses were detected | breast cancer patients with response [1, 5]: three out of four | melanoma patients with response [1, 6]: one out of seven | healthy donors with response [1, 7]: no responses were detected

RIAAWMATY (Peptide derived from Bcl-XL) [Bcl-XL165-173]
multiple myeloma patients with response ([1]; HLA-A3+ multiple myeloma patients): one out of four | CTL response in cancer patients of different origin (in words) [1]: strong and frequent CTL responses | breast cancer patients with response ([1]; five HLA-A3+ breast cancer patients, 10^5 cells per well): four out of five | melanoma patients with response ([1]; four HLA-A3+ melanoma patients): four out of four | healthy individuals with response ([1]; seven HLA-A3+ healthy individuals): not able to detect a response | pancreatic cancer patients with response ([1]; Bcl-XL study): two out of two

RIAAWMATYL (Peptide derived from Bcl-XL) [Bcl-XL165-174]
healthy individuals with CTL response [1]: no responses were detected | CTL response in cancer patients of different origin (in words) [1]: strong and frequent CTL responses | breast cancer patients hosting an immune response [1]: four | melanoma patients hosting an immune response [1]: two | pancreatic cancer patients with CTL response [1]: one

RLKRDWLVK (Modified Mcl-1 peptide) [Mcl-1300-308L2]
breast cancer patients with spontaneous immune response ([1]; number examined not given, data not shown): two

RLLFFAPTR (Peptide derived from Mcl-1) [Mcl-195-103]
healthy donors with response ([1]; 10 healthy HLA-A3+ individuals): no responses were detected | CTL response in cancer patients of different origin (in words) [1]: strong and frequent CTL responses | breast cancer patients with response [1, 8]: five | B-CLL patients with response ([1]; six HLA-A3+ patients suffering from B-CLL): two | pancreatic cancer patients with response ([1]; Mcl-1 study): two out of two

RTKRDWLVK (Peptide derived from Mcl-1) [Mcl-1300-308]
healthy donors with response ([1]; 10 healthy HLA-A3+ individuals): no responses were detected | CTL response in cancer patients of different origin (in words) [1]: strong and frequent CTL responses | breast cancer patients with response [1, 8]: three | pancreatic cancer patients with response ([1]; Mcl-1 study): one of these

SLALVGACI [bcl222]
EC50 (HLA-A2; [4]): 1000 nM

SLKTLLSLAL [bcl216, SLKTLLSLAL]
C50 (concentration of the peptide required for half maximal binding to HLA-A2) (HLA-A2): did not bind

TAYQSFEQV (Peptide derived from Bcl-XL) [Bcl-XL118-126]
CTL response in cancer patients of different origin (in words) [1]: weak spontaneous CTL response

VAFFSFGGAL (Peptide derived from Bcl-XL) [Bcl-XL141-150]
healthy individuals with CTL response [1]: no responses were detected | CTL response in cancer patients of different origin (in words) [1]: strong and frequent CTL responses | breast cancer patients hosting an immune response [1]: Four out of eighteen | melanoma patients hosting an immune response [1]: not able to detect a response | pancreatic cancer patients with CTL response [1]: one of the two

VLVSRIAAWM (Peptide derived from Bcl-XL) [Bcl-XL161-170]
healthy individuals with CTL response [1]: no responses were detected | CTL response in cancer patients of different origin (in words) [1]: strong and frequent CTL responses | breast cancer patients hosting an immune response [1]: six | pancreatic cancer patients with CTL response [1]: one

WLSLKTLLSL [bcl214]
EC50 (HLA-A2; [4]): 3000 nM | patients with spontaneous CTL response [1]: eleven | patients with spontaneous CTL response (%) [1]: ≈ 75% | CLL patients with Bcl-2 response ([1]; ten HLA-A2 positive CLL patients, reactivity against bcl208 and bcl214, not broken down by peptide): five | AML patients with Bcl-2 response ([1]; three AML patients, reactivity against bcl208 and bcl214, not broken down by peptide): two | pancreatic cancer patients with CTL response [1]: both | GrB release in controls ([2]; breast cancer patient no. 16 and healthy control h1): no GrB release was detected

WMATYLNDHL (Peptide derived from Bcl-XL) [Bcl-XL169-178]
CTL response in cancer patients of different origin (in words) [1]: weak spontaneous CTL response

YLNDHLEPWI (Peptide derived from Bcl-XL) [Bcl-XL173-182]
healthy individuals with CTL response [1]: no responses were detected | CTL response in cancer patients of different origin (in words) [1]: strong and frequent CTL responses | breast cancer patients hosting an immune response [1]: nine out of eighteen | peptide specific, IFNγ secreting CD8+ T cells ([1]; same CD8+ culture of breast cancer patient no. 36): around 1.4% | melanoma patients hosting an immune response [1]: two out of six | frequency of peptide specific CTL (GrB ELISPOT) ([2]; Bcl-XL reactive breast cancer patients no. 35 and 36): 50-100 peptide specific CTL per 3×10^5 cells | GrB release in control patient ([2]; breast cancer patient no. 17): no GrB release was detected | pentamer positive T cells among CD8+ T cells (CD8+ T cells from PBL): 0.24%

YLNRHLHTWI [bcl180]
EC50 (HLA-A2; [4]): 20000 nM and 15000 nM | patients with spontaneous CTL response [1]: four | patients with spontaneous CTL response (%) [1]: ≈ 25%
